{
  "source": "patent US20090270478A1",
  "about": "“ION CHANNEL MODULATING ACTIVITY II” (CARDIOME PHARMA CORP., priority 2000, published 2009)",
  "key": {"[1]": {"molecular_target": "human heart sodium channel (hH1) (Homo sapiens, UniProt Q14524)", "sequence (Q14524 whole entry, looked up)": "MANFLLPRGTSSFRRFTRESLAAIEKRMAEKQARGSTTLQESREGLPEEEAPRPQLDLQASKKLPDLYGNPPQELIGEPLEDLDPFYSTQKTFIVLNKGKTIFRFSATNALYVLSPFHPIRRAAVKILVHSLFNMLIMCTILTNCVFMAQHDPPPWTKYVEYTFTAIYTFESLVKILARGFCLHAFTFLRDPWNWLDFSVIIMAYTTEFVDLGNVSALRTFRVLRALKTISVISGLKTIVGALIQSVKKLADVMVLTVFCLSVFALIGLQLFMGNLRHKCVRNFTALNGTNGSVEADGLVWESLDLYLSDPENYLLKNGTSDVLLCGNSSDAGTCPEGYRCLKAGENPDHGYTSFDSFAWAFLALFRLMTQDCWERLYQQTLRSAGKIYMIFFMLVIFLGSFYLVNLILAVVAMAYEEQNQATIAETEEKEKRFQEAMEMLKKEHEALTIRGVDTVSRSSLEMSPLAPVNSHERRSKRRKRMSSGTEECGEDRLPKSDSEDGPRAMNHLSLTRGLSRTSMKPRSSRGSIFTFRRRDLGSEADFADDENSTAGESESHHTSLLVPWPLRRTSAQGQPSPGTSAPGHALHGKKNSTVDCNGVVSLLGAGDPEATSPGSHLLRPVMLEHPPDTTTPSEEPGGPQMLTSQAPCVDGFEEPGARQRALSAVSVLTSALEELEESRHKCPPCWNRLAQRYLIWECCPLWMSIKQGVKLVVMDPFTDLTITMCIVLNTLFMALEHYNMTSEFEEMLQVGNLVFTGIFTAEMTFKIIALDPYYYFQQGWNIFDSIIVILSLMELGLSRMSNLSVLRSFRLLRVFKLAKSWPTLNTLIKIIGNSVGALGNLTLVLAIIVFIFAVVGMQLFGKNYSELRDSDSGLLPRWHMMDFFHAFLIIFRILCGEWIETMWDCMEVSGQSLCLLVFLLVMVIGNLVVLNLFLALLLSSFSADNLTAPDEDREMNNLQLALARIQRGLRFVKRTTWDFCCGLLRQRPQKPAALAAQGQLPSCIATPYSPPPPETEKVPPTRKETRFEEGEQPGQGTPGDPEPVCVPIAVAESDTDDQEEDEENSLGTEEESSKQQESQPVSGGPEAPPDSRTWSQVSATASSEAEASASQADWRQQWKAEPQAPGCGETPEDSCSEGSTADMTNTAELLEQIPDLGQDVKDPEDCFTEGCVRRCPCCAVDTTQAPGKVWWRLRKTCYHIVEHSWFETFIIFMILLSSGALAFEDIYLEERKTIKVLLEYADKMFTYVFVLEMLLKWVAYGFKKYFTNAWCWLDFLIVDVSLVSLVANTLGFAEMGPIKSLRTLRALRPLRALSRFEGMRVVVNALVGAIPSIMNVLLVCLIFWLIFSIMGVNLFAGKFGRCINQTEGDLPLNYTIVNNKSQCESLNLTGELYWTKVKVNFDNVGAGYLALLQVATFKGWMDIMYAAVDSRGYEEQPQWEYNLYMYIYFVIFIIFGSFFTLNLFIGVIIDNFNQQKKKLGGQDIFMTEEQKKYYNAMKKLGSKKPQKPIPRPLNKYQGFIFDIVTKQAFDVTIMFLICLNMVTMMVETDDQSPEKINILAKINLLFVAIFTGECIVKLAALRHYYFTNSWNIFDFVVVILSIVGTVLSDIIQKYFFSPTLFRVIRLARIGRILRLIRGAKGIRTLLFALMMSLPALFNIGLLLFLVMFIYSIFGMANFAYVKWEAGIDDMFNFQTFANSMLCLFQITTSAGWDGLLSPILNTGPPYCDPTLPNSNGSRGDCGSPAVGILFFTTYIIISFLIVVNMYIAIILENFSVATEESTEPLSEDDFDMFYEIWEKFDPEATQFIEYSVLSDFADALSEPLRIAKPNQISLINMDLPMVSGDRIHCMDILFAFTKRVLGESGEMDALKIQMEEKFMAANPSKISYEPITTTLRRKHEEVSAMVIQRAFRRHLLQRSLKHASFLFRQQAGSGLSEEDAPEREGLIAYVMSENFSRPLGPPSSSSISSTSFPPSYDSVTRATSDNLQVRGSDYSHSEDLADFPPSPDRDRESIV", "format": "cell-based"}, "hH1 sodium channel": {"molecular_target": "T1, hH1 sodium channel (Homo sapiens, UniProt Q14524)", "T1 construct": "expressed in transfected cells", "T1 sequence (Q14524 whole entry)": "as the sequence (Q14524 whole entry, looked up) above", "experiment": "Inactivated state inhibition of hH1 sodium channel current (prepulse protocol)", "format": "cell-based"}, "[2]": {"tested_on": "isolated rabbit Purkinje fibers", "conditions": "100 μM lidocaine, 300 nM dofetilide"}},
  "data": [
    {"smiles": "CCN(CC)CC(=O)Nc1c(C)cccc1C", "note": "[lidocaine]", "values": [
      {"measurement": "block of early TTX-sensitive sodium current, Iearly(TTX)", "setting": "[1]", "result": "41±2.7", "unit": "%"},
      {"measurement": "block of late TTX-sensitive sodium current, Ilate(TTX)", "setting": "[1]", "result": "73±2.8", "unit": "%"},
      {"measurement": "block of sustained TTX-sensitive sodium current, Isus(TTX)", "setting": "[1]", "result": "70±2.5", "unit": "%"},
      {"measurement": "inhibition of hH1 with longer prepulses (inactivated state inhibition)", "setting": "hH1 sodium channel", "result": "produced enhanced inhibition when prepulses of longer duration were applied"},
      {"measurement": "termination of dofetilide-induced EADs", "setting": "[2]", "result": "terminated dofetilide-induced (300 nM) EADs"}
    ]}
  ]
}
